Data taken from patent US10537611B2, “Methods of treating lung cancer” (Five Prime Therapeutics, Inc., priority 2011, dated 2020).

Assays:
NCI-H460 xenograft model = test: NCI-H460 xenograft tumor growth inhibition; assay type: in vivo, mouse; conditions: Lung NCI-H460; IP 10 mg/kg BIW; non-amplified; P < 0.05
Text: (§1) The impact of FGFR1-ECD.339-Fc on tumor growth was compared between FGFR1 gene amplified and non-amplified lung cancer xenograft models. Lung cell lines without FGFR1-amplification examined in this experiment were as follows: A549, NCI-H460, NCI-H226, NCI-H2126, NCI-H441, NCI-H358, NCI-H522 and Colo699. Non-amplified cell lines were purchased from ATTC (Manassas, Va.) and cultured according to supplier instructions. Lung cancer xenograft models using non-FGFR1 gene amplified cell lines were carried out substantially as described in Example 2.
(§2) Percentage tumor growth inhibition by FGFR1-ECD.339-Fc was determined by area-under-the-curve (AUC) analysis of xenograft growth curves treated with FGFR1-ECD.339-Fc compared to albumin control. […] The difference in FGFR1-ECD.339-Fc-mediated xenograft inhibition between FGFR1 gene amplified and non-amplified lung cancer xenograft models was statistically significant (P=0.0333).

[1] = system: NCI-H2126 xenograft model; test: NCI-H2126 xenograft tumor growth inhibition; assay type: in vivo, mouse; conditions: Lung NCI-H2126; IP 15 mg/kg BIW; non-amplified; P ns
Text: as §1, §2

NCI-H522 xenograft model = test: NCI-H522 xenograft tumor growth inhibition; assay type: in vivo, mouse; conditions: Lung NCI-H522, IP 10 mg/kg BIW, non-amplified, P < 0.05
Text: as §1, §2

U-87 xenograft model = test: U-87 xenograft tumor growth inhibition; assay type: in vivo, mouse; conditions: Glioblastoma U-87; IP 15 mg/kg BIW; non-amplified; P ns
Protocol: as §2
Also shown in Table 5 are the dosing schedule for FGFR1-ECD.339-Fc in a mouse xenograft model, the percent tumor growth inhibition (TGI (%)) and the statistical significance of the tumor growth inhibition (P Value), as well as whether the FGFR1 gene is amplified in the cell line.
An exemplary xenograft experiment is as follows. For Caki-1 and MSTO-211H, five million cells were implanted subcutaneously over the right flank of SCID mice (N=10 per group). […] Representative tumor growth curves are shown for a renal cancer, Caki-1, (A), and mesothelioma, MSTO-211H, (B) xenograft cancer model. […] In the MSTO-211H mesothelioma model, FGFR1-ECD.339-Fc administration reduced tumor growth (FIG. 16b) by 64% (P<0.0001).

[2] = system: lung cancer xenografts with FGFR1 gene amplification; test: Tumor growth inhibition, lung cancer xenografts with FGFR1 gene amplification (average); assay type: in vivo, mouse; conditions: AUC analysis vs albumin control; FGFR1 gene amplified lung xenografts
Text: as §1, §2

NCI-H226 cells = test: Tritiated thymidine incorporation, NCI-H226; assay type: cell-based, human; conditions: NCI-H226, no FGFR1 gene amplification
Protocol: To determine the impact of FGFR1-ECD.339-Fc on lung cancer cell lines in tissue culture, cells were plated in a Microtest™ 96-well tissue culture plate (Becton Dickenson, Franklin Lakes, N.J.) at a density of 5×10^3 cells/well in medium containing 10%, 1% or 0.1% FBS in the presence or absence of 15 μg/ml FGFR1-ECD.339-Fc (SEQ ID NO: 6) or an unrelated ECD-Fc fusion protein (as a negative control). Plates were incubated at 37° C. at 5% CO2 for 4 days and then assayed to determine the impact of FGFR1-ECD.339-Fc on cell number and proliferation.
To determine the impact of FGFR1-ECD.339-Fc on cell proliferation the tritiated thymidine ([3H]-TdR) incorporation assay was employed. Following incubation of lung cancer cell lines with FGFR1-ECD.339-Fc or an unrelated ECD-Fc negative control, tritiated thymidine ([3H]-TdR; PerkinElmer, Boston, Mass.) was added at activity of 1 μCi/well. After 16-h exposure, tritiated thymidine incorporation was assessed. Cells were washed with Dulbecco's phosphate-buffered saline (DPBS; Mediatech, Inc.) and removed from cell culture surface by incubation with trypsin-EDTA (Mediatech, Inc.). […] Thymidine incorporation was determined as counts per minute (cpm) on a Topcount NXT (PerkinElmer) scintillation counter. Results were expressed as cpm/well.
P-values were determined using an unpaired t-test. […]

## FGFR1-ECD.339-Fc: human FGFR1 extracellular domain ending at amino acid 339 fused to an Fc; SEQ ID NO: 6 (mature form), SEQ ID NO: 5 with signal peptide
NCI-H460 xenograft model
  TGI (%): 35%
[1]
  TGI (%): 0%
NCI-H522 xenograft model
  TGI (%): 42%
U-87 xenograft model
  TGI (%): 0%
[2]
  average reduction in tumor growth: 56%
NCI-H226 cells
  cell proliferation (tritiated thymidine incorporation): reduced
